Results reported in patent US12077503B2, “Substituted cyclic amides and their use as herbicides” (FMC CORPORATION, priority 2015, dated 2024).

Assays:
Assay type in all cases: in vivo
[1] = tested on: pigweed (Amaranthus retroflexus); experiment: Test A postemergence; settings: Amaranthus retroflexus, post-emergence, 240 h, read-out: Plant response rating, Pigweed
How it was run: (§1)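 Seeds sprayed preemergence with a directed soil spray, or plants at 2 to 10 cm height and one- to two-leaf stage sprayed postemergence, with test chemicals in a non-phytotoxic solvent mixture containing surfactant, in loam soil–sand blend. Injury rated visually against untreated controls after about 10 d in greenhouse, 0 (no effect) to 100 (complete control).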

[2] = tested on: blackgrass (Alopecurus myosuroides); experiment: Test A postemergence; settings: Alopecurus myosuroides, post-emergence, 240 h, read-out: Plant response rating, Blackgrass
How it was run: as §1

[3] = tested on: wheat (Triticum aestivum); experiment: Test A postemergence; settings: Triticum aestivum, post-emergence, 240 h, Postemergence, 31 g ai/ha; visual injury after approx. 10 d; 0 to 100 scale, 0 no effect, 100 complete control; read-out: Plant response rating, Wheat
How it was run: as §1

[4] = tested on: ragweed (common ragweed, Ambrosia elatior); experiment: Test A postemergence; settings: Ambrosia artemisiifolia, post-emergence, 240 h, read-out: Plant response rating, Ragweed
How it was run: as §1

Kochia (Kochia scoparia) [5] = experiment: Test A postemergence; settings: Bassia scoparia, post-emergence, 240 h, read-out: Plant response rating, Kochia
How it was run: as §1

[6] = tested on: ryegrass, Italian (Italian ryegrass, Lolium multiflorum); experiment: Test A postemergence; settings: Lolium multiflorum, post-emergence, 240 h, read-out: Plant response rating, Ryegrass, Italian
How it was run: as §1

corn (Zea mays) = experiment: Test A postemergence; settings: Zea mays, post-emergence, 240 h
How it was run: as §1

[7] = tested on: giant foxtail (Setaria faberii); experiment: Test A postemergence; settings: Setaria faberi, post-emergence, 240 h, read-out: Plant response rating, Foxtail, Giant
How it was run: as §1

[8] = tested on: barnyardgrass (Echinochloa crus-galli); experiment: Test A postemergence; settings: Echinochloa crus-galli, post-emergence, 240 h, read-out: Plant response rating, Barnyardgrass
How it was run: as §1

[9] = tested on: Galium (catchweed bedstraw, Galium aparine); experiment: Test A postemergence; settings: Galium, post-emergence, 240 h, read-out: Plant response rating, Galium
How it was run: as §1

[10] = tested on: pigweed (Amaranthus retroflexus); experiment: Test A preemergence; settings: Amaranthus retroflexus, pre-emergence, 240 h, read-out: Plant response rating, Pigweed
[11] = tested on: ragweed (common ragweed, Ambrosia elatior); experiment: Test A preemergence; settings: Ambrosia artemisiifolia, pre-emergence, 240 h, read-out: Plant response rating, Ragweed
How it was run: as §1

Kochia (Kochia scoparia) [12] = experiment: Test A preemergence; settings: Bassia scoparia, pre-emergence, 240 h, read-out: Plant response rating, Kochia
How it was run: as §1

[13] = tested on: ryegrass, Italian (Italian ryegrass, Lolium multiflorum); experiment: Test A preemergence; settings: Lolium multiflorum, pre-emergence, 240 h, read-out: Plant response rating, Ryegrass, Italian
How it was run: as §1

[14] = tested on: giant foxtail (Setaria faberii); experiment: Test A preemergence; settings: Setaria faberi, pre-emergence, 240 h, read-out: Plant response rating, Foxtail, Giant
How it was run: as §1

[15] = tested on: barnyardgrass (Echinochloa crus-galli); experiment: Test A preemergence; settings: Echinochloa crus-galli, pre-emergence, 240 h, read-out: Plant response rating, Barnyardgrass
How it was run: as §1

[16] = 125 g ai/ha, postemergence, visual injury after approximately 10 d, 0 to 100 scale (0 no effect, 100 complete control)
[17] = Postemergence, 31 g ai/ha, visual injury after approx. 10 d, 0 to 100 scale, 0 no effect, 100 complete control
[18] = 125 g ai/ha, preemergence, visual rating after approx. 10 d, 0 to 100 scale where 0 is no effect and 100 is complete control
[19] = Preemergence, 31 g ai/ha, 0 to 100 scale (0 no effect, 100 complete control)

C/C=C/C1CNC(=O)C1C(=O)Nc1ccccc1F (stereo not shown) [Compound 792]
0%: pest or weed control at 125 g/ha [1, 16] | pest or weed control at 31 g/ha [1, 17] | pest or weed control at 125 g/ha [2, 16] | pest or weed control at 31 g/ha [2, 17] | plant injury at 31 g/ha [3] | pest or weed control at 125 g/ha [4, 16] | pest or weed control at 31 g/ha [4, 17] | pest or weed control at 125 g/ha (Kochia (Kochia scoparia) [5]; [16]) | pest or weed control at 31 g/ha (Kochia (Kochia scoparia) [5]; [17]) | pest or weed control at 125 g/ha [6, 16] | pest or weed control at 31 g/ha [6, 17] | Corn plant response rating (crop injury, 0 = no effect, 100 = complete kill) at 125 g/ha (corn (Zea mays); [16]) | Corn plant response rating (crop injury, 0 = no effect, 100 = complete kill) at 31 g/ha (corn (Zea mays); [17]) | pest or weed control at 125 g/ha [7, 16] | pest or weed control at 31 g/ha [7, 17] | pest or weed control at 125 g/ha [8, 16] | pest or weed control at 31 g/ha [8, 17] | pest or weed control at 125 g/ha [9, 16] | pest or weed control at 31 g/ha [9, 17] | pest or weed control at 125 g/ha [10, 18] | pest or weed control at 31 g/ha [10, 19] | pest or weed control at 125 g/ha [11, 18] | pest or weed control at 31 g/ha [11, 19] | pest or weed control at 125 g/ha (Kochia (Kochia scoparia) [12]; [18]) | pest or weed control at 31 g/ha (Kochia (Kochia scoparia) [12]; [19]) | pest or weed control at 125 g/ha [13, 18] | pest or weed control at 31 g/ha [13, 19] | pest or weed control at 125 g/ha [14, 18] | pest or weed control at 31 g/ha [14, 19] | pest or weed control at 125 g/ha [15, 18] | pest or weed control at 31 g/ha [15, 19]
